Patent US8143288B2, “Inhibitors of HCV replication” (priority 2005, dated 2012)

The compounds below were run on HCV 1b-377-neo replicon cells (assay: HCV replicon FRET assay). Conditions: Hepatitis C virus; HCV replicon; read-out: Activity (EC50).
Format: cell-based
From the text: The HCV replicon cell line was isolated from colonies as described by Lohman, et. al. (Science 1999, 285, 110-113, expressly incorporated by reference in its entirety) and used for all experiments. The HCV replicon has the nucleic acid sequence set forth in EMBL Accession No.: AJ242652, the coding sequence of which is from nt 1801 to 7758.
The coding sequence of the published HCV replicon was synthesized by Operon Technologies, Inc. (Alameda, Calif.), and the fall-length replicon was then assembled in plasmid pGem9zf(+) (Promega, Madison, Wis.) using standard molecular biology techniques. The replicon consists of (i) the HCV 5′ UTR fused to the first 12 amino acids of the capsid protein, (ii) the neomycin phosphotransferase gene (neo), (iii) the IRES from encephalomyocarditis virus (EMCV), and (iv) HCV NS3 to NS5B genes and the HCV 3′ UTR. Plasmid DNAs were linearized with ScaI and RNA transcripts were synthesized in vitro using the T7 MegaScript transcription kit (Ambion, Austin, Tex.) according to manufacturer's directions.
To generate cell lines, 4×10^6 Huh-7 cells (kindly provided by R. Bartenschlager and available from Health Science Research Resources Bank, Japan Health Sciences Foundation) were electroporated (GenePulser System, Bio-Rad) with 10 micrograms(“μg”) of RNA transcript and plated into 100-mm dishes. After 24 hours, selective media containing 1.0 milligrams/milliliter (“mg/mL”) G418 was added and media was changed every 3 to 5 days. […] These cell lines were maintained at 37° C., 5% CO2, 100% relative humidity in DMEM (Cat#11965-084) Gibco-BRL, Rockville, Md., with 10% heat inactivated calf serum (Sigma), 10 mL of 100× penicillin/streptomycin (Cat#15140-122) Gibco-BRL, Rockville, Md., Geneticin (Cat#10131-027) Gibco-BRL, Rockville, Md. at 1 mg/mL. One of the cell lines (deposited as ATCC Accession No. PTA-4583 in the American Type Culture Collection) which had approximately 3,000 copies of HCV replicon RNA/cell was used for development of the assay (HCV 1b-377-neo replicon cells).
To perform the HCV FRET screening assay, 96-well cell culture plates were used. The FRET peptide (Anaspec, Inc., San Jose, Calif.) (Taliani et al., Anal. Biochem. 1996, 240, 60-67, hereby incorporated by reference in its entirety) contains a fluorescence donor, EDANS, near one end of the peptide and an acceptor, DABCYL, near the other end. The fluorescence of the peptide is quenched by […] resonance energy transfer (RET) between the donor and the acceptor, but as the NS3 protease cleaves the peptide the products are released from RET quenching and the fluorescence of the donor becomes apparent.
The assay reagent was made as follows: 5X luciferase cell culture lysis (Cat#E153A, Promega, Madison, Wis.) diluted to 1X with dH2O, NaCl added to […] final, the FRET peptide diluted to 20 micromolar (“μM”) final from a 2 mM stock. HCV 1b-377-neo replicon cells were trypsinized, placed into each well of a 96-well plate and allowed to attach overnight. The next day, the test compounds were added to columns 1 through 10; column 11 was media plus DMSO only, and column 12 contained a titration of interferon or an HCV specific inhibitor as a control (1000 units for A12, B12, 100 units for C12, D12, 10 units for E12, F12 and 1 unit for G12, H12). […] In addition, naïve Huh-7 cells could also be used to replace wells A12 and B12 as a background control.
At subsequent various times (typically 72 hours), 10% final volume Alamar blue (Cat#00-100, Trek Diagnostics, Cleveland, Ohio) was added to each well. The plates were returned to the incubator for 5 hours and then read in the Cytoflour (PE Biosystems) to determine Alamar blue conversion in each well as a measure of cellular toxicity.

SMILES | EC50 [nM]
CC(C)(C)CC(=O)N1CCC[C@H]1C(=O)Nc1ccc(/C=C/c2ccc(NC(=O)[C@@H]3CCCN3C(=O)CC(C)(C)C)cc2)cc1 [Example 48] | 100 to 1000
CC(=O)N1CCC[C@H]1C(=O)Nc1ccc(/C=C/c2ccc(NC(=O)[C@@H]3CCCN3C(=O)Cc3ccccn3)cc2)cc1 [Example 49] | 0.1 to 90
CC(=O)N1CCC[C@H]1C(=O)Nc1ccc(/C=C/c2ccc(NC(=O)[C@@H]3CCCN3C(=O)Cc3cccnc3)cc2)cc1 [Example 50] | 0.1 to 90
CC(=O)N1CCC[C@H]1C(=O)Nc1ccc(/C=C/c2ccc(NC(=O)[C@@H]3CCCN3C(=O)Cc3ccncc3)cc2)cc1 [Example 51] | 100 to 1000
COC(=O)N1CCC[C@H]1C(=O)Nc1ccc(/C=C/c2ccc(NC(=O)[C@@H]3CCCN3C(=O)OC)cc2)cc1 [Example 52] | 100 to 1000
CC(C)(C)C(=O)N1CCC[C@H]1C(=O)Nc1ccc(/C=C/c2ccc(NC(=O)[C@@H]3CCCN3C(=O)C(C)(C)C)cc2)cc1 [Example 53] | 0.1 to 90
CC(C)(C)OC(=O)NC1(C(=O)N2CCC[C@H]2C(=O)Nc2ccc(/C=C/c3ccc(NC(=O)[C@@H]4CCCN4C(=O)C4(NC(=O)OC(C)(C)C)CC4)cc3)cc2)CC1 [Example 55] | 100 to 1000
CCOC(=O)N1CCC[C@H]1C(=O)Nc1ccc(/C=C/c2ccc(NC(=O)[C@@H]3CCCN3C(=O)C3(C(N)=O)CC3)cc2)cc1 [Example 56] | 100 to 1000
CCOC(=O)N1CCC[C@H]1C(=O)Nc1ccc(/C=C/c2ccc(NC(=O)[C@@H]3CCCN3C(=O)OCC)cc2)cc1 [Example 57] | 100 to 1000
O=C(Nc1ccc(/C=C/c2ccc(NC(=O)[C@@H]3CCCN3C(=O)c3ccncc3)cc2)cc1)[C@@H]1CCCN1C(=O)c1ccncc1 [Example 58] | 0.1 to 90
O=C(Nc1ccc(/C=C/c2ccc(NC(=O)[C@@H]3CCCN3C(=O)c3cccnc3)cc2)cc1)[C@@H]1CCCN1C(=O)c1cccnc1 [Example 59] | 100 to 1000
[N-]=[N+]=Nc1ccc(C(=O)N2CCC[C@H]2C(=O)Nc2ccc(/C=C/c3ccc(NC(=O)[C@@H]4CCCN4C(=O)c4ccc(N=[N+]=[N-])cc4)cc3)cc2)cc1 [Example 60] | 1000 to 10000
O=C(Nc1ccc(/C=C/c2ccc(NC(=O)[C@@H]3CCCN3C(=O)c3ccccc3)cc2)cc1)[C@@H]1CCCN1C(=O)c1ccccc1 [Example 61] | 100 to 1000
NC(=O)C1(C(=O)N2CCC[C@H]2C(=O)Nc2ccc(/C=C/c3ccc(NC(=O)[C@@H]4CCCN4C(=O)C4(C(N)=O)CC4)cc3)cc2)CC1 [Example 62] | 100 to 1000
O=C(Nc1ccc(/C=C/c2ccc(NC(=O)[C@@H]3CCCN3C(=O)C3CC3)cc2)cc1)[C@@H]1CCCN1C(=O)Cc1cccnc1 [Example 63] | 0.1 to 90
Cn1ccnc1C(=O)N1CCC[C@H]1C(=O)Nc1ccc(/C=C/c2ccc(NC(=O)[C@@H]3CCCN3C(=O)c3nccn3C)cc2)cc1 [Example 64] | 0.1 to 90
N#CC1(C(=O)N2CCC[C@H]2C(=O)Nc2ccc(/C=C/c3ccc(NC(=O)[C@@H]4CCCN4C(=O)C4(C#N)CC4)cc3)cc2)CC1 [Example 66] | 0.1 to 90
O=C(Nc1ccc(/C=C/c2ccc(NC(=O)[C@@H]3CCCN3C(=O)c3ccco3)cc2)cc1)[C@@H]1CCCN1C(=O)c1ccco1 [Example 67] | 100 to 1000
O=C(Nc1ccc(/C=C/c2ccc(NC(=O)[C@@H]3CCCN3C(=O)c3ccsc3)cc2)cc1)[C@@H]1CCCN1C(=O)c1ccsc1 [Example 68] | 0.1 to 90
CCC(=O)N1CC=C[C@H]1C(=O)Nc1ccc(/C=C/c2ccc(NC(=O)[C@@H]3C=CCN3C(=O)CC)cc2)cc1 [Example 71] | 100 to 1000
CC(C)C(=O)N1CC=C[C@H]1C(=O)Nc1ccc(/C=C/c2ccc(NC(=O)[C@@H]3C=CCN3C(=O)C(C)C)cc2)cc1 [Example 73] | 100 to 1000

SMILES | EC50 [nM]
O=C(Nc1ccc(/C=C/c2ccc(NC(=O)[C@@H]3C=CCN3C(=O)C3CCC3)cc2)cc1)[C@@H]1C=CCN1C(=O)C1CCC1 [Example 74] | 100 to 1000
Cc1ncccc1C(=O)N1CCC[C@H]1C(=O)Nc1ccc(/C=C/c2ccc(NC(=O)[C@@H]3CCCN3C(=O)c3cccnc3C)cc2)cc1 [Example 76] | 100 to 1000
O=C(Nc1ccc(/C=C/c2ccc(NC(=O)[C@@H]3CCCN3C(=O)c3cn[nH]c3)cc2)cc1)[C@@H]1CCCN1C(=O)c1cn[nH]c1 [Example 77] | 0.1 to 90
O=C(Nc1ccc(/C=C/c2ccc(NC(=O)[C@@H]3CCCN3C(=O)c3ccno3)cc2)cc1)[C@@H]1CCCN1C(=O)c1ccno1 [Example 79] | 0.1 to 90
Cc1ccc(C(=O)N2CCC[C@H]2C(=O)Nc2ccc(/C=C/c3ccc(NC(=O)[C@@H]4CCCN4C(=O)c4ccc(C)nc4)cc3)cc2)cn1 [Example 80] | 100 to 1000
CSCC(=O)N1CCC[C@H]1C(=O)Nc1ccc(/C=C/c2ccc(NC(=O)[C@@H]3CCCN3C(=O)CSC)cc2)cc1 [Example 81] | 0.1 to 90
CN(C)c1ccc(C(=O)N2CCC[C@H]2C(=O)Nc2ccc(/C=C/c3ccc(NC(=O)[C@@H]4CCCN4C(=O)c4ccc(N(C)C)cc4)cc3)cc2)cc1 [Example 82] | 1000 to 10000
CN(C)CC(=O)N1CCC[C@H]1C(=O)Nc1ccc(/C=C/c2ccc(NC(=O)[C@@H]3CCCN3C(=O)c3ccc(N(C)C)cc3)cc2)cc1 [Example 83] | 100 to 1000
CSCC(=O)N1CCC[C@H]1C(=O)Nc1ccc(/C=C/c2ccc(NC(=O)[C@@H]3CCCN3C(=O)c3ccccn3)cc2)cc1 [Example 84] | 0.1 to 90
O=C(Nc1ccc(/C=C/c2ccc(NC(=O)[C@@H]3CCCN3C(=O)C3CCC3)cc2)cc1)[C@@H]1CCCN1C(=O)c1ccccn1 [Example 85] | 0.1 to 90
CSCC(=O)N1CCC[C@H]1C(=O)Nc1ccc(/C=C/c2ccc(NC(=O)[C@@H]3CCCN3C(=O)c3cccnc3)cc2)cc1 [Example 86] | 0.1 to 90
COCC(=O)N1CCC[C@H]1C(=O)Nc1ccc(/C=C/c2ccc(NC(=O)[C@@H]3CCCN3C(=O)c3cccnc3)cc2)cc1 [Example 87] | 0.1 to 90
O=C(Nc1ccc(/C=C/c2ccc(NC(=O)[C@@H]3CCCN3C(=O)C3CCC3)cc2)cc1)[C@@H]1CCCN1C(=O)c1cccnc1 [Example 88] | 0.1 to 90
CC(C)C(=O)N1CCC[C@H]1C(=O)Nc1ccc(/C=C/c2ccc(NC(=O)[C@@H]3CCCN3C(=O)c3cccnc3)cc2)cc1 [Example 89] | 0.1 to 90
CCC(=O)N1CCC[C@H]1C(=O)Nc1ccc(/C=C/c2ccc(NC(=O)[C@@H]3CCCN3C(=O)c3cccnc3)cc2)cc1 [Example 90] | 0.1 to 90
COCC(=O)N1CCC[C@H]1C(=O)Nc1ccc(/C=C/c2ccc(NC(=O)[C@@H]3CCCN3C(=O)c3ccc(N(C)C)cc3)cc2)cc1 [Example 91] | 100 to 1000
CN(C)c1ccc(C(=O)N2CCC[C@H]2C(=O)Nc2ccc(/C=C/c3ccc(NC(=O)[C@@H]4CCCN4C(=O)C4CCC4)cc3)cc2)cc1 [Example 92] | 0.1 to 90
CC(C)C(=O)N1CCC[C@H]1C(=O)Nc1ccc(/C=C/c2ccc(NC(=O)[C@@H]3CCCN3C(=O)c3ccc(N(C)C)cc3)cc2)cc1 [Example 93] | 100 to 1000
CSCC(=O)N1CCC[C@H]1C(=O)Nc1ccc(/C=C/c2ccc(NC(=O)[C@@H]3CCCN3C(=O)Cc3cc(C)no3)cc2)cc1 [Example 94] | 0.1 to 90
COCC(=O)N1CCC[C@H]1C(=O)Nc1ccc(/C=C/c2ccc(NC(=O)[C@@H]3CCCN3C(=O)Cc3cc(C)no3)cc2)cc1 [Example 95] | 0.1 to 90
Cc1cc(CC(=O)N2CCC[C@H]2C(=O)Nc2ccc(/C=C/c3ccc(NC(=O)[C@@H]4CCCN4C(=O)C4CCC4)cc3)cc2)on1 [Example 96] | 0.1 to 90
